Laboratory results as given in PubChem BioAssay AID179 (DTP/NCI, 2004).
Several values for one entry are separate records, joined by “and”; a condition that tells them apart may be missing. Equal values may be shown once. Activity calls are given as the source filed them.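 How the source made its calls: active means compounds giving half or more protection of infected cells from virus-caused growth loss, again on retest; inactive means the rest.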

Test system: CEM cells HIV-1 protection, formazan growth assay
Assay: NCI AIDS Antiviral Assay
Details: for IC50: measured here: growth of uninfected CEM cells
Method in brief: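 Category rules: moderately active means at least 50% protection on retest, and confirmed active means 100% protection reproducibly. The underlying data came from a formazan growth assay in HIV-1-infected CEM cells.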

Row | Compound | EC50 [µM] | IC50 | outcome
1 | CC(=O)CC(=O)ON(C)C(C)=O | > 1450 | > 1450 µM | 
2 | CC(=O)Oc1c(C)cc2c(c1C)C(C)CN2C(C)=O (stereo not given) | > 200 | > 200 µM | 
3 | CCOC(=O)c1nnsc1NC(=O)NN | > 200 | > 200 µM | 
4 | CC1=NN(c2ccccc2)C(=O)/C1=C\N1CC(=O)NC1=S | > 200 | 87.1 µM | 
5 | O=C(O)/C(=C(/c1ccccc1)c1ccc(Cl)cc1)c1ccccc1 | > 107 | 89.1 µM | 
6 | Cc1nc2n[nH]c(N)c2nc1C | > 83.2 | > 83.2 µM | 
7 | O=C(O)c1cccc(/C=C/c2ccc(N=Nc3cc(S(=O)(=O)O)c4cccnc4c3O)cc2C(=O)O)c1 | 166 | > 200 µM | 
8 | CN(CCN1C(=O)c2cccc3cc(N)cc(c23)C1=O)CCN1C(=O)c2cccc3cc(N)cc(c23)C1=O | > 21.9 | 0.155 µM | 
9 | CC(=O)NC(CCCCNC(=O)N(C)N=O)C(=O)NCc1ccccc1 (stereo not given) | > 692 | 141 µM | 
10 | CCC1=CC2CN3CCc4c([nH]c5ccccc45)C(C(=O)OC)(C2)C13 (stereo not given) |  |  | inactive
11 | O=C1/C(=C/c2ccc(O)c([N+](=O)[O-])c2)CCC/C1=C\c1ccc(O)c([N+](=O)[O-])c1 | > 200 | 11.7 µM | 
12 | Cc1c(C#N)c(N)n(C2OC(CO)C(O)C(O)C2O)c(=S)c1C#N (stereo not given) | > 200 | > 200 µM | 
13 | COc1ccc(C(=O)CC(c2ccccc2)[C@H]2C(c3ccc(OC)cc3)=Nc3c(nc(SC)n(C)c3=O)NC2c2ccccc2)cc1 (stereo not given in full) | > 200 | 19.1 µM | 
14 | O=C1NC2C3CC(c4ccccc43)C12 (stereo not given) | > 832 | > 832 µM | 
15 | Cc1cc(-c2ccccc2)oc(=O)c1NC(=O)c1cnccn1 | > 200 | 141 µM | 
16 | Cc1nc2ccc(Br)cc2c(=O)n1-c1ccc(NC2OCC(O)C(O)C2O)cc1 (stereo not given) | > 200 | 20.9 µM and 138 µM | 
17 | Cc1cc2nc(-c3ccccc3[N+](=O)[O-])[nH]c2cc1C |  |  | inactive
18 | CC(C)=CC[P+](c1ccccc1)(c1ccccc1)c1ccccc1 | > 200 | 2.09 µM | 
19 | COc1ccc(/C=C\c2cc(OC)c(OC)c(OC)c2)cc1OP(=O)(O)O | > 35.5 | 0.0282 µM | 
20 | CC(=O)NCCSSSCCNC(C)=O | > 200 | 0.891 µM | 
21 | CCOC(=O)C(C)(C)Oc1ccc2c(-c3ccc(Cl)cc3)cc(=O)oc2c1 | > 13.5 | > 13.5 µM | 
22 | c1cc(-c2ccc(-c3ccc(-c4ccc(-c5cccc6nsnc56)[nH]4)c4nsnc34)[nH]2)c2nsnc2c1 | > 100 | > 100 µM | 
23 | CCOP(=O)(OCC)Oc1ccc(Sc2ccc(OP(=O)(OCC)OCC)cc2)cc1 | > 200 | 85.1 µM | 

Row | Compound | EC50 [µM] | IC50 | outcome
24 | CC(C)(C)OC(=O)Nc1nnc(S(N)(=O)=O)s1 | 182 | > 200 µM | 
25 | CC(C)(C)OC(=O)N1CC(C)(C)N2C(=O)C3(CCCO3)C12 (stereo not given) | 33.9 | 347 µM | 
26 | CC(=O)NNc1nc(C)c(C(/C=C/c2ccc(Cl)cc2)=N\N=C(N)N)s1 | > 18.2 | > 18.2 µM | 
27 | COC(=O)CSSCc1ccc([N+](=O)[O-])cc1 | > 200 | 3.47 µM | 
28 | COc1ccccc1NC(=S)NN=C(C)c1cccc(C(C)=NNC(=S)Nc2ccccc2OC)n1 | > 200 | 34.7 µM | 
29 | Cn1c2ccccc2c2nnc(N/N=C/c3ccc([N+](=O)[O-])o3)nc21 | > 200 | > 200 µM | 
30 | CCCO/S(=N\S(=O)(=O)c1ccccc1)c1ccccc1[N+](=O)[O-] (stereo not given) | > 676 | > 676 µM | 
31 | CC(C)(C)OC(=O)NC(CCCCNC(=O)OCc1ccccc1)C(=O)NCCNc1ccc(NCCNC(=O)C(CCCCNC(=O)OCc2ccccc2)NC(=O)OC(C)(C)C)c2c1C(=O)c1ccccc1C2=O (stereo not given) | > 151 | 8.51 µM | 
32 | c1ccc2c(c1)Cc1cn3ncnc3nc1-2 | > 200 | > 200 µM | 
33 | COP(=O)(OC)C1=c2c(C)noc2=C2C=COC2C1=O (stereo not given) | > 200 | > 200 µM | 
34 | COc1ccc(/C=C2\CN(C)CC3C2=NC(=S)NC3c2ccc(OC)cc2)cc1 (stereo not given) | > 200 | 6.61 µM | 
35 | COc1ccc2c(c1)OC(OC)(c1ccc(OC)c(OC)c1)C(O)(OC)C2=O (stereo not given) | > 200 | 11.2 µM | 
36 | O=C1CC(c2ccccc2)=Nc2ccccc2N1 | > 151 | > 151 µM | 
37 | S=C(S)N1CCN(c2cccc(Cl)c2)CC1 | > 200 | 182 µM | 
38 | NNC(=O)c1n[nH]n(N)c1=S | > 200 | > 200 µM | 
39 | CCOC(=O)CC[C@H](NC(=O)c1ccc(CNc2nc3cc(C(F)(F)F)ccc3nc2C(=O)OCC)cc1)C(=O)OCC | > 100 | > 100 µM | 
40 | CCOC(=O)C1(NC(=O)OC(C)(C)C)CCc2[nH]oc(=O)c2C1 (stereo not given) | > 200 | > 200 µM | 
41 | O=C1c2ccccc2NC2(C(=O)Nc3ccccc32)N1N1CCOCC1 (stereo not given) | > 200 | > 200 µM | 
42 | CCOC(=O)c1ccc(N2C(=O)Cc3ccccc3C2=O)cc1 |  |  | inactive
43 | CC(C)c1cc(OCC(O)CO)cc(C(C)C)c1 (stereo not given) | > 141 | > 141 µM | 
44 | O=c1c2ccccc2nc(-c2ccccc2)n1/N=C/c1ccccc1[N+](=O)[O-] | > 50.1 | > 50.1 µM | 
45 | O=C1CCC(NC(=O)c2ccccc2)C(=O)N1 (stereo not given) | > 200 | > 200 µM | 
46 | C=C(C)C1=NC(C)(C)CC1=C(C)C |  |  | inactive

Row | Compound | EC50 [µM] | IC50 | outcome
47 | O=[N+]([O-])/C(C(Cl)=C(Cl)Cl)=C1\Nc2ccccc2O1 | > 200 | 97.7 µM | 
48 | Cc1ccc(C(=O)/C=C2/SS/C(=C/C(=O)c3ccc(C)cc3)S2)cc1 | > 200 | > 200 µM | 
49 | Nc1ccc(/C=C/c2ccc(NCc3c(O)cc(O)cc3C(=O)O)cc2S(=O)(=O)O)c(S(=O)(=O)O)c1 | 107 | > 200 µM | 
50 | NC(=O)c1ncn2c1CNC(=O)C2 | > 200 | > 200 µM | 
51 | CS(=O)(=O)OC1CCC2(C#N)CCC1C2=O (stereo not given) | > 1020 | > 1020 µM | 
52 | COC1c2ccccc2CC(c2ccccc2)=NN1C(C)=O (stereo not given) | > 89.1 | 51.3 µM | 
53 | CC(C)[Si]1(C(C)C)OCC2OC(n3ccc(=O)[nH]c3=O)C([Se]c3ccccc3)C2O[Si](C(C)C)(C(C)C)O1 (stereo not given) | > 200 | 10.7 µM | 
54 | CCc1nc(N)c2nc(-c3ccc(C#N)cc3)oc2n1 | > 100 | > 100 µM | 
55 | COc1ccc2c(c1)CN([C@@H](C)[C@H]1CC[C@H]3[C@@H]4CC[C@H]5C[C@@H](O)CC[C@]5(C)[C@H]4CC[C@]13C)CO2 | > 61.7 | 3.16 µM | 
56 | C[N+]12CN3CN(CP(C3)C1)C2 | > 832 |  | 
57 | c1cc(-c2ccc(-c3ccsc3)s2)cs1 | > 200 | > 200 µM | 
58 | CCC/C(=N/NC(=O)C(N)=O)C(CC)C(=O)CCC(=O)N(Cc1ccccc1)Cc1ccccc1 (stereo not given) | > 525 | > 525 µM | 
59 | COc1ccc(-c2cc(C(=O)Nc3ccc(C)c(C)c3)nc(NC#N)n2)cc1 | > 339 | > 339 µM | 
60 | COC(=O)c1nc(N)nc(C(=O)OC)c1C(=O)/C=C/c1ccccc1 | > 741 | 324 µM | 
61 | O=C1OC2(O)c3ccccc3C(=O)N2N2CCCC12 (stereo not given) | > 692 | > 692 µM | 
62 | O=[N+]([O-])c1ccc(-c2noc(-c3ccc(Cl)cc3)c2C2=NCCN2)cc1 | > 14.1 | > 14.1 µM | 
63 | CC(=O)N(C(C)=O)n1c(Cc2ccc(Cl)cc2)n[nH]c1=O | > 200 | > 200 µM | 
64 | COc1cc2c(cc1OC)C(OC)N(C)c1c-2ccc2cc3c(cc12)OCO3 (stereo not given) | > 20 | 0.309 µM | 
65 | O=C(N/N=C/c1ccccc1)c1c(F)c(F)c(F)c(F)c1F | > 200 | 112 µM | 
66 | CN(Cc1ccccc1)C1(N(C)Cc2ccccc2)CC1 |  |  | inactive
67 | CC1(C)OC2OC(COC(=O)c3ccccc3)C(=O)C2O1 (stereo not given) | > 200 | 13.8 µM | 
68 | COc1ccc2cc1Oc1cc3c(cc1OC)CC[N+](C)(C)C3Cc1ccc(cc1)Oc1c(OC)c(OC)cc3c1C(C2)[N+](C)(C)CC3 (stereo not given) | > 200 | > 200 µM | 
69 | CCOC(=O)c1c(NC(=O)c2cccs2)sc2c1CCCC2 | > 151 | > 151 µM | 

Row | Compound | EC50 [µM] | IC50 | outcome
70 | CC1(C)OC(=S)N(c2ccccc2)C12C=Cc1ccccc1O2 (stereo not given) | > 200 | 35.5 µM | 
71 | O=C(Nc1ccc(F)cc1)N(C1CCCCC1)C1CCCCC1 | > 200 | 81.3 µM | 
72 | C[C@H]1[C@H](C)CC[C@]2(C(=O)O)CCC3(COC(=O)/C=C/c4ccc(O)cc4)C(=CCC4[C@@]5(C)CC[C@H](O)C(C)(C)C5CC[C@]43C)[C@H]12 (stereo not given in full) | > 11.5 | 5.37 µM | 
73 | C#Cc1cccc(N2C(=O)CCC2=O)c1 | > 468 | 17.4 µM | 
74 | CCN(CC)CC/C=C1\c2ccccc2Sc2ccc(Cl)cc21 |  |  | inactive
75 | CC1Cc2c([nH]c3ccccc3c2=O)O1 (stereo not given) | > 1230 | 724 µM | 
76 | O=C1C(=Nc2ccccc2)Oc2cc(O)ccc21 | > 200 | 17.8 µM | 
77 | O=C(OCC(Cl)(Cl)Cl)N1CC[C@H](C2CCCCC2)C1 | > 200 | 50.1 µM | 
78 | O=C(O)C(CS)Nc1c2ccccc2nc2ccccc12 (stereo not given) |  |  | inactive
79 | CCOC(=O)C1SCCC1(C)O (stereo not given) |  |  | inactive
80 | Cc1sc2nc3n(c(=O)c2c1C)N=CN(c1ccccc1)C3 | > 100 | > 100 µM | 
81 | C=C(C)CN(CC(=C)C)C(=N)OCC1CCCO1 (stereo not given) | > 200 | > 200 µM | 
82 | Cc1c2cccc1CSCc1cccc(c1C)CSC2 | > 123 | > 123 µM | 
83 | Cc1ccc(S(=O)(=O)N/N=C2\CC3C4C=CC3C2C4)cc1 (stereo not given) | > 200 | > 200 µM | 
84 | CC[C@H](CCCCC1CC[C@@H]2CC(=O)C[C@H]12)OC (stereo not given in full) | > 200 | > 200 µM | 
85 | Nc1nc(NCC2(CO)CC(CCc3ccccc3)C2)cc(=O)[nH]1 (stereo not given) | > 200 | 64.6 µM | 
86 | O=c1[nH]nc(Cc2ccccc2)n1/N=C/c1c(O)ccc2ccccc12 | 40.7 | 174 µM | 
87 | CC(C)(NC1=NCCO1)c1ccccc1 | > 200 | > 200 µM | 
88 | COc1ccc(C(c2cc(OC)c(OC)c(OC)c2)N2C(=O)CCC2C(=O)O)cc1 (stereo not given) | > 200 | 33.1 µM | 
89 | Nc1[nH]c(=O)nc2snnc12 | > 200 | 4.79 µM | 
90 | COc1cc2c(cc1OC)C1CC3(CC4c5cc(OC)c(OC)cc5CCN4CC3CO)C(CO)CN1CC2 (stereo not given) |  |  | inactive
